# Source: patent US7314719B2, “Method for increasing productivity of secondary metabolite by conferring drug-resistant mutations” (priority 2001, dated 2008)
# Where two headings read alike, the source gives them in different places.
# Experiments:
# [1] = cited from earlier work
# [2] = test system: Bacillus cereus No. 2045 and mutants; test: Resistance level to gentamicin and rifampicin (Table 4); assay type: cell-based
# Procedure: A gentamicin-resistant mutant and a rifampicin-and gentamicin-resistant mutant of Bacillus cereus No. 2045 were produced according to a similar manner to that of Examples 1, 2 or 3. Those mutants were precultured in bouillon medium for 10 h. Cells (0.1 ml) were inoculated into 5 ml of production medium consisting of (per liter) 20 g of polypeptone, 20 g of corn steep liquor, and 5 g of NaCl (adjusted to pH 7.5 with NaOH) for 2 days at 30° C.
# [3] = test system: S. coelicolor 1147 (wild type) and mutants S-1, SG-1, SG-2; test: MIC of antibiotics on GYM agar (screening of drug-resistant mutants); assay type: cell-based, Streptomyces coelicolor; settings: for Concentration at which growth was inhibited completely: GYM agar; for MIC: 2 days of incubation on GYM agar
# Procedure: The spontaneous streptomycin, gentamicin or rifampicin-resistant mutants of S. coelicolor were obtained as the colonies that grew within 7 days at 30° C. after spores (or cells) were spread on GYM agar (composition is the same as the above GYM agar) containing 5 μg streptomycin per ml or 1.0 μg of gentamicin per ml or 200 μg of rifampicin per ml, respectively (Growth of parental strain was inhibited completely with 1 μg of streptomycin per ml, 0.1 μg of gentamicin per ml or 10 μg of rifampicin per ml). The single colonies grew on screening plates were picked out and inoculated to R4 agar containing 1% of glucose, 0.1% of yeast extract, 0.001% of Casamino Acids, 0.3% of proline, 1% of MgCl2·6H2O, 0.4% of CaCl2·2H2O, 0.002% of K2SO4, 0.56% of TES [N-Tris (hydroxymethyl)methyl-2-aminoethanesulfonic acid], 0.2% of trace elements solution (as described for R2YE medium) and 2% of agar (before adding agar, adjusted to pH 7.2). The R4 plates were incubated at 30° C. for 6 days and the amount of blue pigment actinorhodin produced was compared among wild type strain and mutants, and selected the over-producers among the mutants. Then, the mutants with over-producing actinorhodin were inoculated into R4 liquid medium (composition is the same as the R4 agar, but no agar) in 25 ml of test tubes containing 5 ml medium on an orbital shaker at 30° C., 350 rpm. After incubation for 6 days, 1 ml culture samples were taken and adjusted pH to 8.0. After centrifugation at 1100 g for 5 min., actinorhodin production in supernatants was assayed by measurement of the optical density of supernatants at 633 nm. The highest productivity detected reached 1.6-fold for gentamicin-resistant mutants, 1.8-fold for streptomycin-resistant mutants and 3.0-fold for rifampicin-resistant mutants. The frequencies for such high producers were 5%, 6% and 10%, respectively (see Table 1 and FIG. 7).
# The spontaneous geneticin, gentamicin or rifampicin-resistant mutants of S-1 were obtained as colonies that grew on GYM agar containing 2.5 μg of geneticin per ml or 2.5 μg of gentamicin per ml or 200 μg of rifampicin per ml. (Growth of S-1 strain was inhibited completely with 0.5 μg of geneticin per ml, 0.5 μg of gentamicin per ml or 10 μg of rifampicin per ml.). Actinorhodin productivity of mutants was examined using R4 agar plates and R4 liquid medium.
# The spontaneous rifampicin-resistant mutants of SG-1 and SG-2 strains were obtained as colonies that grew on GYM agar containing 200 μg of rifampicin per ml.
# [4] = test system: S. coelicolor 1147 and drug-resistant mutants; test: Resistance level to antibiotics on GYM agar (Table 2); assay type: cell-based, Streptomyces coelicolor; settings: 4 days on GYM agar
# [5] = test system: Streptomyces lividans 66 and mutants; test: Resistance level to rifampicin and streptomycin (Table 5); assay type: cell-based
# Excerpt: A rifampicin-resistant mutant and a streptomycin-and rifampicin-resistant mutant of Streptomyces lividans 66 were produced according to a similar manner to that of Examples 1, 2 or 3, and the actinorhodin production was estimated.
# [6] = strain B. cereus No. 2045, wild-type
# [7] = parental strain (S. coelicolor wild type)
# [8] = strain S. lividans 66, wild-type
# [9] = Streptomyces coelicolor, 48 h, strain S. coelicolor 1147 (wild type), read-out: MIC
compound,measurement,setting,value
C[C@H]1O[C@H](CC(=O)O)Cc2c1c(O)c1c(O)c(-c3cc(=O)c4c(=O)c5c(c(=O)c=4c3=O)[C@@H](C)O[C@H](CC(=O)O)C5)cc(O)c1c2O [actinorhodin],Solubility,"[1]; in alcohol, acetic acid, acetone",slightly soluble
same,Solubility,[1]; in aq acid,Practically insol
same,Solubility,[1]; in aq alkali (bright blue color),sol
same,Solubility,"[1]; in piperidine, tetrahydrofuran, dioxane, phenol",Soluble
gentamicin,Resistance level,[2]; [6],0.8 µg/mL
same,Resistance level,[2]; strain BG-1 (gen),4.0 µg/mL
same,Resistance level,[2]; strain BG-2 (gen),4.0 µg/mL
same,Resistance level,[2]; strain BG-3 (gen),4.5 µg/mL
same,Resistance level,[2]; strain BGR-1 (gen-rif),4.5 µg/mL
same,Resistance level,[2]; strain BGR-2 (gen-rif),5.0 µg/mL
same,Resistance level,[2]; strain BGR-3 (gen-rif),5.0 µg/mL
same,Concentration at which growth was inhibited completely,[3]; S-1 strain,0.5 μg per ml
same,Concentration at which growth was inhibited completely,[3]; [7],0.1 μg per ml
same,MIC,[3]; strain S-1 (str),Gentamicin(0.1) μg/ml
same,MIC,[3]; strain S. coelicolor 1147 (wild type),Gentamicin (0.1) μg/ml
same,Resistance level,[4]; strain 1147 (wild type),0.1 µg/mL
same,Resistance level,[4]; strain G-1,0.3 µg/mL
same,Resistance level,[4]; strain G-2,0.3 µg/mL
same,Resistance level,[4]; strain G-3,0.3 µg/mL
same,Resistance level,[4]; strain SG-1,0.3 µg/mL
same,Resistance level,[4]; strain SG-2,0.3 µg/mL
same,Resistance level,[4]; strain SG-3,0.3 µg/mL
same,Resistance level,[4]; strain SGR-1,0.2 µg/mL
same,Resistance level,[4]; strain SGR-2,0.2 µg/mL
same,Resistance level,[4]; strain SGR-3,0.3 µg/mL
same,Resistance level,[4]; strain SGR-4,0.2 µg/mL
same,Resistance level,[4]; strain SGR-5,0.5 µg/mL
same,Resistance level,[4]; strain SGR-6,0.3 µg/mL
"[H]/N=C(/N)N[C@H]1[C@H](O)[C@@H](O)[C@H](O[C@@H]2O[C@@H](C)[C@](O)(C=O)[C@H]2O[C@@H]2O[C@@H](CO)[C@H](O)[C@@H](O)[C@@H]2NC)[C@@H](N/C(N)=N\[H])[C@@H]1O [Streptomycin, streptomycin]",Resistance level,[5]; S. lividans strain SR-1 (rif),1.0 µg/mL
same,Resistance level,[5]; S. lividans strain SR-2 (rif),0.8 µg/mL
same,Resistance level,[5]; S. lividans strain SR-3 (rif),1.0 µg/mL
same,Resistance level,[5]; [8],1.0 µg/mL
same,Resistance level,[5]; strain SRS-1 (rif-str),50 µg/mL
same,Resistance level,[5]; strain SRS-2 (rif-str),120 µg/mL
same,Resistance level,[5]; strain SRS-3 (rif-str),100 µg/mL
same,MIC,[3]; [9],1 µg/mL
same,Concentration at which growth was inhibited completely,[3]; [7],1 μg per ml
same,Resistance level,[4]; S. coelicolor strain SR-1,50 µg/mL
same,Resistance level,[4]; S. coelicolor strain SR-2,50 µg/mL
same,Resistance level,[4]; S. coelicolor strain SR-3,50 µg/mL
same,Resistance level,[4]; strain 1147 (wild type),1 µg/mL
same,Resistance level,[4]; strain S-1,100 µg/mL
same,Resistance level,[4]; strain S-2,5 µg/mL
same,Resistance level,[4]; strain S-3,10 µg/mL
same,Resistance level,[4]; strain SG-1,100 µg/mL
same,Resistance level,[4]; strain SG-2,100 µg/mL
same,Resistance level,[4]; strain SG-3,100 µg/mL
same,Resistance level,[4]; strain SGR-1,100 µg/mL
same,Resistance level,[4]; strain SGR-2,100 µg/mL
same,Resistance level,[4]; strain SGR-3,50 µg/mL
same,Resistance level,[4]; strain SGR-4,50 µg/mL
same,Resistance level,[4]; strain SGR-5,50 µg/mL
same,Resistance level,[4]; strain SGR-6,100 µg/mL
same,Resistance level,[4]; strain SGe-1,100 µg/mL
same,Resistance level,[4]; strain SGe-2,100 µg/mL
same,Resistance level,[4]; strain SGe-3,100 µg/mL
same,Resistance level,[4]; strain SR-4,100 µg/mL
same,Resistance level,[4]; strain SR-5,100 µg/mL
same,Resistance level,[4]; strain SR-6,50 µg/mL
same,Resistance level,[4]; strain SR-7,50 µg/mL
"CO[C@H]1/C=C/O[C@@]2(C)Oc3c(C)c(O)c4c(O)c(c(/C=N/N5CCN(C)CC5)c(O)c4c3C2=O)NC(=O)/C(C)=C\C=C\[C@H](C)[C@H](O)[C@@H](C)[C@@H](O)[C@@H](C)[C@H](OC(C)=O)[C@@H]1C [Rifampicin, rifampicin]",Resistance level,[5]; S. lividans strain SR-1 (rif),200 µg/mL
same,Resistance level,[5]; S. lividans strain SR-2 (rif),400 µg/mL
same,Resistance level,[5]; S. lividans strain SR-3 (rif),400 µg/mL
same,Resistance level,[5]; [8],10 µg/mL
same,Resistance level,[5]; strain SRS-1 (rif-str),400 µg/mL
same,Resistance level,[5]; strain SRS-2 (rif-str),350 µg/mL
same,Resistance level,[5]; strain SRS-3 (rif-str),400 µg/mL
same,Resistance level,[2]; [6],1.0 µg/mL
same,Resistance level,[2]; strain BG-1 (gen),1.0 µg/mL
same,Resistance level,[2]; strain BG-2 (gen),0.8 µg/mL
same,Resistance level,[2]; strain BG-3 (gen),1.0 µg/mL
same,Resistance level,[2]; strain BGR-1 (gen-rif),100 µg/mL
same,Resistance level,[2]; strain BGR-2 (gen-rif),120 µg/mL
same,Resistance level,[2]; strain BGR-3 (gen-rif),150 µg/mL
same,Concentration at which growth was inhibited completely,[3]; S-1 strain,10 μg per ml
same,Concentration at which growth was inhibited completely,[3]; SG-1 strain,10 μg per ml
same,Concentration at which growth was inhibited completely,[3]; SG-2 strain,10 μg per ml
same,MIC,[3]; [9],10 µg/mL
same,Concentration at which growth was inhibited completely,[3]; [7],10 μg per ml
same,MIC,[3]; strain S-1 (str),Rifampicin(10) μg/ml
same,MIC,[3]; strain SG-1 (str-gen),Rifampicin(10) μg/ml
same,MIC,[3]; strain SG-2 (str-gen),Rifampicin(10) μg/ml
same,Resistance level,[4]; S. coelicolor strain SR-1,50 µg/mL
same,Resistance level,[4]; S. coelicolor strain SR-2,150 µg/mL
same,Resistance level,[4]; S. coelicolor strain SR-3,400 µg/mL
same,Resistance level,[4]; strain 1147 (wild type),10 µg/mL
same,Resistance level,[4]; strain R-1,400 µg/mL
same,Resistance level,[4]; strain R-2,400 µg/mL
same,Resistance level,[4]; strain R-3,400 µg/mL
same,Resistance level,[4]; strain SGR-1,400 µg/mL
same,Resistance level,[4]; strain SGR-2,400 µg/mL
same,Resistance level,[4]; strain SGR-3,300 µg/mL
same,Resistance level,[4]; strain SGR-4,400 µg/mL
same,Resistance level,[4]; strain SGR-5,400 µg/mL
same,Resistance level,[4]; strain SGR-6,300 µg/mL
same,Resistance level,[4]; strain SR-4,400 µg/mL
same,Resistance level,[4]; strain SR-5,400 µg/mL
same,Resistance level,[4]; strain SR-6,400 µg/mL
same,Resistance level,[4]; strain SR-7,400 µg/mL
"CN[C@@H]1[C@@H](O)[C@@H](O[C@@H]2[C@@H](O)[C@H](O[C@H]3O[C@H]([C@@H](C)O)[C@@H](O)[C@H](O)[C@H]3N)[C@@H](N)C[C@H]2N)OC[C@]1(C)O [Geneticin, geneticin]",Concentration at which growth was inhibited completely,[3]; S-1 strain,0.5 μg per ml
same,MIC,"[3]; Streptomyces coelicolor, 48 h, strain S-1 (str), read-out: MIC",0.2 µg/mL
same,Resistance level,[4]; strain 1147 (wild type),0.2 µg/mL
same,Resistance level,[4]; strain SGe-1,0.5 µg/mL
same,Resistance level,[4]; strain SGe-2,1 µg/mL
same,Resistance level,[4]; strain SGe-3,1 µg/mL
